Biological target: V2 receptor (Homo sapiens, UniProt P30518)
Assay: Determination of V2 receptor agonist activity in vitro (cellular activation)
Assay type: cell-based
Settings: concentration of compound necessary to cause a half-maximal cellular activation
Experimental: Determination of V2r Ceptor Agonist Activity in Vitro
Agonist activity was determined for all compounds and is reported as an EC50 value, being that concentration of compound necessary to cause a half-maximal cellular activation.

Chain of V2 receptor (P30518 whole entry): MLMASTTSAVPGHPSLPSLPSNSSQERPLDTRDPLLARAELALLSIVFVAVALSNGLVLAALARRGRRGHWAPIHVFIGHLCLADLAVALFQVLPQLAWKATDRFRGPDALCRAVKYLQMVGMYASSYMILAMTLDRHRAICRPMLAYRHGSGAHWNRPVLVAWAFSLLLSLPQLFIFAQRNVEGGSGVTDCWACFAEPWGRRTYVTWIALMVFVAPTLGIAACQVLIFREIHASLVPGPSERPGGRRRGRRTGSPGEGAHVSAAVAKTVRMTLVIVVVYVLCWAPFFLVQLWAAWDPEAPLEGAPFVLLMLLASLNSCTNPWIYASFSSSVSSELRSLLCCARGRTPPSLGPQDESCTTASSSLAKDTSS

EC50	Compound
0.039 µM	O=C(NCc1ccc(C(=O)N2CCCCc3ccccc32)cc1)Nc1c(F)cccc1F [Example 1, 1-(4-[3-(2,6-Difluorophenyl)ureidomethyl]benzoyl)-2,3,4,5-tetrahydro-1H-1-benzazepine]
0.16 µM	N#C/N=C(\NCc1ccc(C(=O)N2CCCCc3ccccc32)cc1)Nc1c(F)cccc1F [Example 2, 1-(4-[3-(2,6-Difluorophenyl)cyanoguanidinomethyl]benzoyl)-2,3,4,5-tetrahydro-1H-1-benzazepine]
0.3 µM	O=C(NCc1ccc(C(=O)N2CCCCc3ccccc32)cn1)Nc1c(F)cccc1F [Example 3, 1-(6-[3-(2,6-Difluorophenyl)ureidomethyl]nicotinoyl)-2,3,4,5-tetrahydro-1H-1-benzazepine]
0.3 µM	COc1cccc(NC(=O)NCc2ccc(C(=O)N3CCCCc4ccccc43)cc2Cl)c1 [Example 4, 1-(3-Chloro-4-[3-(3-methoxyphenyl)ureidomethyl]benzoyl)-2,3,4,5-tetrahydro-1H-1-benzazepine]
0.15 µM	O=C(NCc1ccc(C(=O)N2CCCCc3ccccc32)cc1Cl)Nc1ccccc1Cl [Example 5, 1-(3-Chloro-4-[3-(2-chloropheny)ureidomethyl]benzoyl)-2,3,4,5-tetrahydro-1H-1-benzazepine]
0.047 µM	O=C(c1ccc(CNC(=S)Nc2c(F)cccc2F)c(Cl)c1)N1CCCCc2ccccc21 [Example 6, 1-(3-Chloro-4-[3-(2,6-difluorophenyl)thioureidomethyl]benzoyl)-2,3,4,5-tetrahydro-1H-1-benzazepine]
0.024 µM	Cc1cc(CNC(=O)Nc2c(F)cccc2F)ccc1C(=O)N1CCCCc2ccccc21 [Example 7, 1-(4-[3-(2,6-Difluorophenyl)ureidomethyl]-2-methylbenzoyl)-2,3,4,5-tetrahydro-1H-1-benzazepine]
0.22 µM	Cc1cc(C(=O)N2CCCCc3ccccc32)ccc1CNC(=O)NS(=O)(=O)c1ccccc1 [Example 8, 1-(3-Methyl-4-[3-(phenylsulfonyl)ureidomethyl]benzoyl)-2,3,4,5-tetrahydro-1H-1-benzazepine]
0.05 µM	Cc1cc(C(=O)N2CCCCc3ccccc32)ccc1CNC(=O)Nc1ccc[nH]c1=O [Example 9, 1-(3-Methyl-4-[3-(2-oxo-1,2-dihydropyrid-3-yl)ureidomethyl]benzoyl)-2,3,4,5-tetrahydro-1H-1-benzazepine]
0.004 µM	Cc1cc(C(=O)N2CCCCc3ccccc32)ccc1CNC(=O)Nc1c(F)cccc1F [Example 10]
0.021 µM	O=C(c1ccc(CNS(=O)(=O)Cc2ccccc2[N+](=O)[O-])c([N+](=O)[O-])c1)N1CCCCc2ccccc21 [Example 11, 1-(3-Nitro-4-[2-nitrobenyzlsulfonylaminomethyl]benzoyl)-2,3,4,5-tetrahydro-1H-1-benzazepine]
0.05 µM	Nc1cc(C(=O)N2CCCCc3ccccc32)ccc1CNC(=O)Nc1c(F)cccc1F [Example 12, 1-(3-Amino-4-[3-(2,6 difluorophenyl)ureidomethyl]benzoyl)-2,3,4,5-tetrahydro-1H-1-benzazepine]
0.038 µM	CN(C)c1cc(C(=O)N2CCCCc3ccccc32)ccc1CNC(=O)Nc1c(F)cccc1F [Example 13, 1-(4-[3-(2,6-Difluorophenyl)ureldomethyl]-3-dimethylaminobenzoyl)-2,3,4,5-tetrahydro-1H-1-benzazepine]
0.24 µM	O=C(NCc1ccc(C(=O)N2CCCCc3ccccc32)c(F)c1)Nc1c(F)cccc1F [Example 14, 1-(4-[3-(2,6-Difluorophenyl)ureidomethyl]-2-fluorobenzoyl)-2,3,4,5-tetrahydro-1H-1-benzazepine]
0.044 µM	Cc1cc(C(=O)N2CCCNc3ccccc32)ccc1CNC(=O)Nc1c(F)cccc1F [Example 15, 1-(4-[3-(2,6-Difluorophenyl)ureidomethyl]-3-methylbenzoyl)-2,3,4,5-tetrahydro-1H-1,5-bezazepine]
0.016 µM	Cc1cc(C(=O)N2CCCN(Cc3cccnc3)c3ccccc32)ccc1CNC(=O)Nc1c(F)cccc1F [Example 16, 1-(4-[3-(2,6-Difluorophenyl)ureidomethyl]-3-methylbenzoyl)-5-(3-pyridyl)methyl-2,3,4,5-tetrahydro-1H-1,5-benzodiazepine]
0.016 µM	Cc1cc(C(=O)N2CCCN(CCO)c3ccccc32)ccc1CNC(=O)Nc1c(F)cccc1F [Example 17, 1-(4-[3-(2,6Difuorophenyl)ureidomethyl]-3-methylbenzoyl)-5-(2-hydroxyethyl)-2,3,4,5-tetrahydro-1H-1,5-benzodiazepine]
0.017 µM	CN1CCCN(C(=O)c2ccc(CNC(=O)Nc3c(F)cccc3F)c(Cl)c2)c2ccccc21 [Example 18, 1-(3-Chloro-4-[3-(2,6-difluorophenyl)ureidomethyl]benzoyl)-5-methyl-2,3,4,5-tetrahydro-1H-1,5-benzodiazepine]
0.04 µM	Cc1cc(CNC(=O)Nc2c(F)cccc2F)ccc1C(=O)N1CCCN(C)c2ccccc21 [Example 19, 1-(4-[3-(2,6-Difluorophenyl)uredomethyl]-2-methylbenzoyl)-5-methyl-2,3,4,5-tetrahydro-1H-1,5-benzodiazepine]
0.017 µM	Cc1cc(C(=O)N2CCCCc3ccccc32)cc(C)c1CNC(=O)Nc1c(F)cccc1F [Example 20]
0.18 µM	O=C(NCc1ccc(C(=O)N2CCCCc3ccccc32)c(Cl)n1)Nc1c(F)cccc1F [Example 21, 1-(2-Chloro-6-[3-(2,6-difluorophenyl)ureidomethyl]nicotinoyl)-2,3,4,5-tetrahydro-1H-1-benzazepine]
1 µM	Cn1c(CNC(=O)Nc2c(F)cccc2F)ccc(C(=O)N2CCCCc3ccccc32)c1=O [Example 22, 1-(6-[3-(2,6-Difluorophenyl)ureidomethyl]-1-methyl-2-oxo-1,2-dihydropyridyl-3-carbonyl)-2,3,4,5-tetrahydro-1H-1-benzazepine]
0.04 µM	CCN1CCCN(C(=O)c2ccc(CNC(=O)Nc3c(F)cccc3F)c(C)c2)c2ccccc21 [Example 23, 1-(4-[3-(2,6-Difluorophenyl)ureidomethyl]-3-methylbenzoyl)-5-ethyl-2,3,4,5-tetrahydro-1H-1,5-benzodiazepine]
0.092 µM	Cc1cc(C(=O)N2CCCCc3cccnc32)ccc1CNC(=O)Nc1c(F)cccc1F [Example 24]
0.28 µM	Cc1cc(C(=O)N2CCC[S+]([O-])c3ccccc32)ccc1CNC(=O)Nc1c(F)cccc1F (stereo not shown) [Example 25, 5-(4-[3-(2,6-Difluorophenyl)ureidomethyl]-3-methylbenzoyl)-1-oxo-1λ^4-2,3,4,5-tetrahydro-1,5-benzothiazepine]
0.01 µM	Cc1cc(C(=O)N2CCCCc3sccc32)ccc1CNC(=O)Nc1c(F)cccc1F [Example 26, 4-(4-[3-(2,6-Difluorophenyl)ureidomethyl]-3-methylbenzoyl)-5,6,7,8-tetrahydro-4H-thieno[3,2-b]azepine]
0.023 µM	Cc1cc(C(=O)N2CCCCc3sccc32)ccc1CNC(=O)Nc1c(F)c(F)cc(F)c1F [Example 27, 4-(3-Methyl-4-[3-(2,3,5,6-tetrafluorophenyl)ureidomethyl]benzoyl)-5,6,7,8-tetrahydro-4H-thieno[3,2-b]azepine]

Test system: Brattleboro rat
Assay: Determination of antidiuretic activity in vivo (urine output, Brattleboro rat)
Settings: Brattleboro rats, 1 mg/kg p.o. in methylcellulose, vs control animals
Experimental: Determination of Antidiuretic Activity in Vivo
The Brattleboro rat is a recognised model for vasopressin deficiency (for a review see FD Grant, “Genetic models of vasopressin deficiency”, Exp. Physiol. 85, 203S–209S, 2000). […] Compounds of the invention were administered to Brattleboro rats (0.1–10 mg/kg p.o. in methylcellulose. Urine was callected hourly and volumes were compared with control animals. Animals had free access to food and water throughout the experiment. Representative results are given in Table S. Results for Desmopressin are given for comparison.

Compound	% inhibition of urine output (at 1 hour)
CCOC(=O)CNC(=O)NCc1ccc(C(=O)N2CCCCc3ccccc32)cc1C [Example 32, 1-(4-[N-(2-Ethoxy-2-oxoethylcarbamoyl)aminomethyl]-3-methylbenzoyl)-2,3,4,5-tetrahydro-1H-1-benzazepine]	74%
Cc1cc(C(=O)N2CCCCc3ccccc32)ccc1CNC(=O)NCC(=O)O [Example 33, 1-(4-[N-(Carboxymethylcarbamoyl)aminomethyl]-3-methylbenzoyl)-2,3,4,5-tetrahydro-1H-1-benzazepine]	38%
Cc1cc(C(=O)N2CCCCc3ccccc32)ccc1CNC(=O)NCC(=O)N(C)C [Example 35, 1-(4-[N-(2-Dimethylamino-2-oxoethylcarbamoyl)aminomethyl]-3-methylbenzoyl)-2,3,4,5-tetrahydro-1H-1-benzazepine]	45–82%
Cc1cc(C(=O)N2CCCCc3ccccc32)ccc1CNC(=O)N1CCC[C@H]1C(=O)N(C)C [Example 39, 1-(2-Methyl-4-(2,3,4,5-tetrahydro-1-benzazepin-1-ylcarbonyl)benzylcarbamoyl)-L-proline-N,N-dimethylamide]	82%
